Read-outs that look alike come from different tables or passages of the source. One block for each compound: values may come before it. Bridge positions count the residues as written; N and C are the ends. Square brackets hold non-standard residues; d marks the D form. Dap = NC[C@H](N)C(=O)O
Assays:
[1] = biological target: T1, mouse MC4R (Mus musculus, UniProt P56450); assay: cAMP AlphaScreen antagonist assay; conditions: highest assayed concentrations
[2] = biological target: T2, mouse MC5R (Mus musculus, UniProt P41149); conditions: for mMC5R inverse agonist, percent change from basal at 100 μM / mMC5R percent maximal stimulatory response at 100 μM: 100000.0; for MC5R activity in words: up to 100 μM
T2 sequence (P41149 whole entry): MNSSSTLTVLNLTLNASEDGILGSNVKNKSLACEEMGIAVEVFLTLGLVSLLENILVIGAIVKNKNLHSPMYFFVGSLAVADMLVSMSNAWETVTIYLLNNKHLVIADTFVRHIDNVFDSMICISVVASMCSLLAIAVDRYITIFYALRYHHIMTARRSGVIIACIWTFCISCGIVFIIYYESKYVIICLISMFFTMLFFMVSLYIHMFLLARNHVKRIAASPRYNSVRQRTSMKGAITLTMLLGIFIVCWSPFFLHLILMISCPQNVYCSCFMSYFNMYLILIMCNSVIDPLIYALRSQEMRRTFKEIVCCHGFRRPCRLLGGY

[3] = biological target: T3, mouse MC1R (Mus musculus, UniProt Q01727); assay: cell-based
T3 sequence (Q01727 whole entry): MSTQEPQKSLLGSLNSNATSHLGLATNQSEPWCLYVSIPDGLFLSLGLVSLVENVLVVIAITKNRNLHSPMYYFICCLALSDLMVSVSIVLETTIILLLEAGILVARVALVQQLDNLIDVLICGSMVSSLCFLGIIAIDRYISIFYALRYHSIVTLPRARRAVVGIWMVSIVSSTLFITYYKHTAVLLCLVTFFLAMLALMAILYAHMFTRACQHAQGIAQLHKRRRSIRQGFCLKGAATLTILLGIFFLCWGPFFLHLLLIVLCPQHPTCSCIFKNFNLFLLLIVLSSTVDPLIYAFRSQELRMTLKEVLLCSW

[4] = biological target: mouse melanocortin-3 receptor (mouse) (UniProt P33033)
Chain of mouse melanocortin-3 receptor (mouse) (P33033 whole entry): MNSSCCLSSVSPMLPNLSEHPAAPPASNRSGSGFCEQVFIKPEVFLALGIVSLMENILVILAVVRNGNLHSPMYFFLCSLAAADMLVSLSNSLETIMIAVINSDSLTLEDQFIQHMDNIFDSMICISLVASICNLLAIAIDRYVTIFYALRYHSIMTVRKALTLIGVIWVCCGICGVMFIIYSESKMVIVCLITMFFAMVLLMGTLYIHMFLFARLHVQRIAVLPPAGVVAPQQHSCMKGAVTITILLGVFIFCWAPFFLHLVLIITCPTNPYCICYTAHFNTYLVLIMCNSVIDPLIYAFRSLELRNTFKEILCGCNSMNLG

[5] = biological target: mouse melanocortin-4 receptor (mouse) (UniProt P56450)
Chain of mouse melanocortin-4 receptor (mouse) (P56450 whole entry): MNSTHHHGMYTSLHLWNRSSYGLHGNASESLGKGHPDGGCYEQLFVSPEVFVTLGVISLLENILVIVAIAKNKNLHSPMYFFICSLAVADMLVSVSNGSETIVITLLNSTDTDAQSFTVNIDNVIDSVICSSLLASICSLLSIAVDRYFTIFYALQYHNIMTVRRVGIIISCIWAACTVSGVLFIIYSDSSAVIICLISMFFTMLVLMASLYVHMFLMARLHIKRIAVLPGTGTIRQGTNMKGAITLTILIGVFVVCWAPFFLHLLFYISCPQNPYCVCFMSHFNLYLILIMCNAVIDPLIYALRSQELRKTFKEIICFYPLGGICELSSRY

[6] = biological target: T4, mouse MC3R (Mus musculus, UniProt P33033); conditions: for MC3R activity in words: agonist (up to 100 μM) and antagonist activity at the concentrations assayed; for mMC3R percent maximal stimulatory response at 100 μM: 100000.0
T4 sequence (P33033 whole entry): as the sequence (P33033 whole entry) above

[7] = biological target: T4, mouse MC3R; assay: cell-based
[8] = biological target: T4, mouse MC3R; assay: cAMP AlphaScreen antagonist assay
[9] = biological target: mouse melanocortin-5 receptor (mouse) (UniProt P41149)
Chain of mouse melanocortin-5 receptor (mouse) (P41149 whole entry): as the sequence (P41149 whole entry) above

[10] = biological target: T3, mouse MC1R; conditions: for mMC1R percent maximal stimulatory response at 100 μM: 100000.0; for MC1R potency increase compared to the starting ligand 2: agonist potency relative to 2
[11] = biological target: T1, mouse MC4R; assay: cAMP AlphaScreen agonist assay, HEK293 cells stably expressing mouse MC4R; conditions: agonist (up to 100 μM) and antagonist activity at the concentrations assayed
[12] = biological target: T2, mouse MC5R; assay: cell-based
[13] = system: MC1R; conditions: read-out: MC1R agonist potency, cited from earlier work

T1 sequence (P56450 whole entry): as the sequence (P56450 whole entry) above

Compound: C[C@@H]1NC(=O)[C@H](CN)NC(=O)[C@@H](Cc2ccccc2)NC(=O)[C@@H](Cc2ccccc2)NC(=O)[C@@H](CCCNC(=N)N)NC(=O)[C@@H]2CCCN2C(=O)[C@H]2CCCN2C(=O)[C@H](Cc2ccccc2)NC1=O [Peptide 16, c[Pro-DArg-DPhe-DPhe-Dap-Ala-Phe-DPro]]
MC3R activity in words [6]: no activity
mMC5R inverse agonist, percent change from basal at 100 μM [2]: 15%
MC5R activity in words [2]: apparent inverse agonist activity
EC50 [3]: 2200 nM
EC50 [7]: > 100 µM
Kb [8]: > 3160 nM

Compound: C[C@@H]1NC(=O)[C@H](CN)NC(=O)[C@@H](Cc2ccccc2)NC(=O)[C@H](Cc2ccccc2)NC(=O)[C@@H](CCCNC(=N)N)NC(=O)[C@@H]2CCCN2C(=O)[C@H]2CCCN2C(=O)[C@H](Cc2ccccc2)NC1=O [Peptide 14, c[Pro-DArg-Phe-DPhe-Dap-Ala-Phe-DPro]]
mMC5R inverse agonist, percent change from basal at 100 μM [2]: 20%
MC5R activity in words [2]: apparent inverse agonist activity
EC50 [3]: 450 nM
EC50 [7]: > 100 µM
Kb [8]: 2000 nM

Compound: C[C@@H]1NC(=O)[C@H](CC(N)=O)NC(=O)[C@@H](Cc2ccccc2)NC(=O)[C@H](Cc2ccccc2)NC(=O)[C@H](CCCNC(=N)N)NC(=O)[C@@H]2CCCN2C(=O)[C@H]2CCCN2C(=O)[C@H](Cc2ccccc2)NC1=O [Peptide 5, c[Pro-Arg-Phe-DPhe-Asn-Ala-Phe-DPro]]
mMC1R percent maximal stimulatory response at 100 μM [10]: 50%
MC4R activity in words [11]: loss of agonist and antagonist activities

Compound: C[C@@H]1NC(=O)[C@H](CN)NC(=O)[C@@H](Cc2ccccc2)NC(=O)[C@@H](Cc2ccccc2)NC(=O)[C@H](CCCNC(=N)N)NC(=O)[C@@H]2CCCN2C(=O)[C@H]2CCCN2C(=O)[C@H](Cc2ccccc2)NC1=O [Peptide 15, c[Pro-Arg-DPhe-DPhe-Dap-Ala-Phe-DPro]]
MC1R potency increase compared to the starting ligand 2 [10]: > 1,000 fold
MC5R activity in words [2]: no activity was observed
EC50 [3]: 700 ± 300 nM
EC50 [7]: > 100 µM
EC50 [12]: > 100 µM
Kb [8]: 2000 nM

Compound: H-Tyr-c[Dap-Arg-Phe-Phe-Asn-Ala-Phe-Asp]-Tyr-NH2 (Y[Dap]RFFNAFDY-NH2; lactam N-9; SMILES C[C@@H]1NC(=O)[C@H](CC(N)=O)NC(=O)[C@H](Cc2ccccc2)NC(=O)[C@H](Cc2ccccc2)NC(=O)[C@H](CCCNC(=N)N)NC(=O)[C@H](CN)NC(=O)[C@H](Cc2ccc(O)cc2)NC(=O)C[C@@H](C(=O)N[C@@H](Cc2ccc(O)cc2)C(N)=O)NC(=O)[C@H](Cc2ccccc2)NC1=O)
EC50 ([13]; previously reported ref 34): 28.1 µM

Compound: C[C@@H]1NC(=O)[C@H](CC(N)=O)NC(=O)[C@@H](Cc2ccccc2)NC(=O)[C@@H](Cc2ccccc2)NC(=O)[C@@H](CCCNC(=N)N)NC(=O)[C@@H]2CCCN2C(=O)[C@H]2CCCN2C(=O)[C@H](Cc2ccccc2)NC1=O [Peptide 9, c[Pro-DArg-DPhe-DPhe-Asn-Ala-Phe-DPro]]
MC3R activity in words [6]: No agonist or antagonist activity was observed
mMC5R percent maximal stimulatory response at 100 μM [2]: 55%
EC50 [3]: 1300 nM
MC4R activity in words [11]: No agonist or antagonist activity was observed
MC4R antagonist activity in words [1]: did not possess antagonist activity

Compound: C[C@@H]1NC(=O)[C@H](CN)NC(=O)[C@H](Cc2ccccc2)NC(=O)[C@@H](Cc2ccccc2)NC(=O)[C@H](CCCNC(=N)N)NC(=O)[C@@H]2CCCN2C(=O)[C@H]2CCCN2C(=O)[C@H](Cc2ccccc2)NC1=O [Peptide 11, c[Pro-Arg-DPhe-Phe-Dap-Ala-Phe-DPro]]
MC1R potency increase compared to the starting ligand 2 [10]: > 1,000 fold
MC3R activity in words [6]: No agonist activity was observed
MC5R activity in words [2]: No agonist activity was observed
EC50 [3]: 230 ± 80 nM
EC50 [7]: > 100 µM
EC50 [12]: > 100 µM
Kb [8]: 1200 nM

Compound: H-Tyr-c[Cys-Arg-Phe-Phe-Asn-Ala-Phe-Cys]-Tyr-OH
EC50 ([13]; previously reported ref 33): 2.89 µM

Compound: C[C@@H]1NC(=O)[C@H](CN)NC(=O)[C@H](Cc2ccccc2)NC(=O)[C@@H](Cc2ccccc2)NC(=O)[C@@H](CCCNC(=N)N)NC(=O)[C@@H]2CCCN2C(=O)[C@H]2CCCN2C(=O)[C@H](Cc2ccccc2)NC1=O [Peptide 13, c[Pro-DArg-DPhe-Phe-Dap-Ala-Phe-DPro]]
mMC5R inverse agonist, percent change from basal at 100 μM [2]: 30%
MC5R activity in words [2]: apparent inverse agonist activity
EC50 [3]: 800 nM
EC50 [7]: > 100 µM
Kb [8]: 1000 nM

Compound: C[C@@H]1NC(=O)[C@H](CN)NC(=O)[C@H](Cc2ccccc2)NC(=O)[C@H](Cc2ccccc2)NC(=O)[C@@H](CCCNC(=N)N)NC(=O)[C@@H]2CCCN2C(=O)[C@H]2CCCN2C(=O)[C@H](Cc2ccccc2)NC1=O [Peptide 10, c[Pro-DArg-Phe-Phe-Dap-Ala-Phe-DPro]]
mMC1R percent maximal stimulatory response at 100 μM [10]: 25%
mMC3R percent maximal stimulatory response at 100 μM [6]: 25%
MC5R activity in words [2]: no activity was observed
EC50 [12]: > 100 µM
Kb [8]: 2000 nM

Second part, the compound after the results:

MC4R antagonist activity in words [1]: did not possess antagonist activity
Compound: C[C@@H]1NC(=O)[C@H](CC(N)=O)NC(=O)[C@H](Cc2ccccc2)NC(=O)[C@H](Cc2ccccc2)NC(=O)[C@@H](CCCNC(=N)N)NC(=O)[C@@H]2CCCN2C(=O)[C@H]2CCCN2C(=O)[C@H](Cc2ccccc2)NC1=O [Peptide 3, c[Pro-DArg-Phe-Phe-Asn-Ala-Phe-DPro]]

mMC5R inverse agonist, percent change from basal at 100 μM [2]: 25%
MC5R activity in words [2]: apparent inverse agonist activity
EC50 [3]: 700 nM
Compound: C[C@@H]1NC(=O)[C@H](CC(N)=O)NC(=O)[C@H](Cc2ccccc2)NC(=O)[C@@H](Cc2ccccc2)NC(=O)[C@H](CCCNC(=N)N)NC(=O)[C@@H]2CCCN2C(=O)[C@H]2CCCN2C(=O)[C@H](Cc2ccccc2)NC1=O [Peptide 4, c[Pro-Arg-DPhe-Phe-Asn-Ala-Phe-DPro]]

agonist EC50; cAMP AlphaScreen, HEK293 cells stably expressing mouse MC3R [4]: > 100 µM
agonist EC50; cAMP AlphaScreen, HEK293 cells stably expressing mouse MC4R [5]: > 100 µM
Compound: c[Pro-DArg-Phe-DPhe-Dap-Ala-Phe-DPro] (peptide)

agonist EC50; cAMP AlphaScreen, HEK293 cells stably expressing mouse MC3R [4]: > 100 µM
agonist EC50; cAMP AlphaScreen, HEK293 cells stably expressing mouse MC4R [5]: > 100 µM
agonist EC50; cAMP AlphaScreen, HEK293 cells stably expressing mouse MC5R [9]: > 100 µM
Compound: c[Pro-Arg-Phe-DPhe-Dap-Ala-Phe-DPro] (peptide)

agonist EC50; cAMP AlphaScreen, HEK293 cells stably expressing mouse MC3R [4]: > 100 µM
agonist EC50; cAMP AlphaScreen, HEK293 cells stably expressing mouse MC4R [5]: > 100 µM
Compound: c[Pro-DArg-DPhe-Phe-Dap-Ala-Phe-DPro] (peptide)

agonist EC50; cAMP AlphaScreen, HEK293 cells stably expressing mouse MC3R [4]: > 100 µM
agonist EC50; cAMP AlphaScreen, HEK293 cells stably expressing mouse MC4R [5]: > 100 µM
agonist EC50; cAMP AlphaScreen, HEK293 cells stably expressing mouse MC5R [9]: > 100 µM
Compound: c[Pro-Arg-DPhe-DPhe-Dap-Ala-Phe-DPro] (peptide)

MC3R activity in words [6]: No activity was observed
mMC5R percent maximal stimulatory response at 100 μM [2]: 55%
EC50 [3]: 500 nM
MC4R activity in words [11]: No activity was observed
MC4R antagonist activity in words [1]: did not possess antagonist activity
Compound: C[C@@H]1NC(=O)[C@H](CC(N)=O)NC(=O)[C@H](Cc2ccccc2)NC(=O)[C@@H](Cc2ccccc2)NC(=O)[C@@H](CCCNC(=N)N)NC(=O)[C@@H]2CCCN2C(=O)[C@H]2CCCN2C(=O)[C@H](Cc2ccccc2)NC1=O [Peptide 6, c[Pro-DArg-DPhe-Phe-Asn-Ala-Phe-DPro]]

mMC3R percent maximal stimulatory response at 100 μM [6]: 35%
MC5R activity in words [2]: full agonist
MC4R antagonist activity in words [1]: did not possess antagonist activity
Compound: C[C@@H]1NC(=O)[C@H](CC(N)=O)NC(=O)[C@@H](Cc2ccccc2)NC(=O)[C@H](Cc2ccccc2)NC(=O)[C@@H](CCCNC(=N)N)NC(=O)[C@@H]2CCCN2C(=O)[C@H]2CCCN2C(=O)[C@H](Cc2ccccc2)NC1=O [Peptide 7, c[Pro-DArg-Phe-DPhe-Asn-Ala-Phe-DPro]]

agonist EC50; cAMP AlphaScreen, HEK293 cells stably expressing mouse MC5R [9]: > 100 µM
Compound: c[Pro-DArg-Phe-Phe-Dap-Ala-Phe-DPro] (peptide)

MC3R activity in words [6]: No activity was observed
MC5R activity in words [2]: No activity was observed
EC50 [3]: 800 nM
EC50 [7]: > 100 µM
EC50 [12]: > 100 µM
Kb [8]: > 3160 nM
Compound: C[C@@H]1NC(=O)[C@H](CN)NC(=O)[C@@H](Cc2ccccc2)NC(=O)[C@H](Cc2ccccc2)NC(=O)[C@H](CCCNC(=N)N)NC(=O)[C@@H]2CCCN2C(=O)[C@H]2CCCN2C(=O)[C@H](Cc2ccccc2)NC1=O [Peptide 12, c[Pro-Arg-Phe-DPhe-Dap-Ala-Phe-DPro]]

EC50 [3]: 800 nM
Compound: C[C@@H]1NC(=O)[C@H](CC(N)=O)NC(=O)[C@@H](Cc2ccccc2)NC(=O)[C@@H](Cc2ccccc2)NC(=O)[C@H](CCCNC(=N)N)NC(=O)[C@@H]2CCCN2C(=O)[C@H]2CCCN2C(=O)[C@H](Cc2ccccc2)NC1=O [Peptide 8, c[Pro-Arg-DPhe-DPhe-Asn-Ala-Phe-DPro]]

agonist EC50; cAMP AlphaScreen, HEK293 cells stably expressing mouse MC3R [4]: > 100 µM
agonist EC50; cAMP AlphaScreen, HEK293 cells stably expressing mouse MC4R [5]: > 100 µM
Compound: c[Pro-DArg-DPhe-DPhe-Dap-Ala-Phe-DPro] (peptide)

agonist EC50; cAMP AlphaScreen, HEK293 cells stably expressing mouse MC3R [4]: > 100 µM
agonist EC50; cAMP AlphaScreen, HEK293 cells stably expressing mouse MC5R [9]: > 100 µM
Compound: c[Pro-Arg-DPhe-Phe-Dap-Ala-Phe-DPro] (peptide)

Source: paper PMC6339850 (ACS chemical neuroscience, 2018)
